Measurements as given in patent publication US20090069320A1, “Substituted 4-Amino-Quinazoline Compounds with Metabotropic Glutamate Receptor Regulating Activity and Uses Thereof” (Gruenenthal GmbH, priority 2006, published 2009).

Biological target: T1, mGluR5 receptor (Sus scrofa, UniProt I3LUI7)
T1 construct: 450 μg of protein from brain homogenate with 5 nM ^3[H]-MPEP; from tissue; host or cells: pig brain halves without medulla, cerebellum and pons
Experiment: [3H]-MPEP mGluR5 receptor binding assay (pig brain homogenate)
Details: 5 nM [3H]-MPEP, read-out: IC50 mGluR5 Receptor (pig) [^3H]-MPEP Bond
Summary of the method: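 Compounds at 10 μM competed with 5 nM [3H]-MPEP for binding to pig brain membranes (450 μg protein) for 60 min at room temperature in pH 8.0 Hepes buffer. Bound radioactivity was collected on glass-fibre filters and read by β-counting, with 10 μM unlabelled MPEP giving non-specific binding.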

T1 sequence (I3LUI7 19-1212): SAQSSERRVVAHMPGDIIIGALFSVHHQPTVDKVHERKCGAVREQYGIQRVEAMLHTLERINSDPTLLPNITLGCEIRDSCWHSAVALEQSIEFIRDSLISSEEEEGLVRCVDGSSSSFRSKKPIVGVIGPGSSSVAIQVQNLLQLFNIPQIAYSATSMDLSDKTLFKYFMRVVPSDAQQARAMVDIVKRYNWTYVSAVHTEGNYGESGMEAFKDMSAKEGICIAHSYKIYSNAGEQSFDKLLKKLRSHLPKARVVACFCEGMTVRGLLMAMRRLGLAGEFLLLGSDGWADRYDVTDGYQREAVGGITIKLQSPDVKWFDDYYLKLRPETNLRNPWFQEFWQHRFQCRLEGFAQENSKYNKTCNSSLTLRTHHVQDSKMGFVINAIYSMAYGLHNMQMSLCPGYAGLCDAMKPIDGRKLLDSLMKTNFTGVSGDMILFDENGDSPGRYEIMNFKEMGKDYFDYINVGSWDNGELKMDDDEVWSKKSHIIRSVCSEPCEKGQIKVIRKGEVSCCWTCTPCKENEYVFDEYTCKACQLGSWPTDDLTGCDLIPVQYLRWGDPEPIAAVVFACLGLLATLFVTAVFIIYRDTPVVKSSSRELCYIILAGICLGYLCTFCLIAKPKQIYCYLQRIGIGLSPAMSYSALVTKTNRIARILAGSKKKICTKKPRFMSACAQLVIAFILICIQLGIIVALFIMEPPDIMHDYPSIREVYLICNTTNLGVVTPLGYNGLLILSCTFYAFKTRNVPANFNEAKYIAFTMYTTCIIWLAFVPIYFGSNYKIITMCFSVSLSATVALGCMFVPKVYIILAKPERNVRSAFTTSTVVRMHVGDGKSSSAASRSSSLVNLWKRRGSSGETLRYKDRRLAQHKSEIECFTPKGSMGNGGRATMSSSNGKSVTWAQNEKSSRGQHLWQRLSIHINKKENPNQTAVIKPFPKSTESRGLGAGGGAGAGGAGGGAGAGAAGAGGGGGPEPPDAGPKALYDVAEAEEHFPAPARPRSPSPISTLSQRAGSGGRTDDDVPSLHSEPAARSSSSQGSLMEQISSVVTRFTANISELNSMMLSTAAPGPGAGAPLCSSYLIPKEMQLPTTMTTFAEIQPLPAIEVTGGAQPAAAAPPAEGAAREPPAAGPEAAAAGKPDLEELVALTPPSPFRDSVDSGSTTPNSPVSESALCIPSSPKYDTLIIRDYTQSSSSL

Row | Structure (SMILES) | IC50
1 | CC(=O)N(Cc1cc(-c2ccc3ncnc(NC4CC4)c3c2)ccc1Cl)C1CC1 [Example 777, N-(2-chloro-5-(4-(cyclopropylamino)quinazolin-6-yl)benzyl)-N-cyclopropyl acetamide] | 0.05 µM

Same assay, conditions: 10 μM compound, 5 nM [3H]-MPEP

Row | Structure (SMILES) | % Inhibition of mGluR5 Receptor (pig) [^3H]-MPEP Bond at 10 μM
2 | O=S(=O)(c1cccc(C(F)(F)F)c1)N(Cc1cc(-c2ccc3ncnc(NC4CC4)c3c2)ccc1Cl)C1CC1 [Example 778, N-(2-chloro-5-(4-(cyclopropylamino)quinazolin-6-yl)benzyl)-N-cyclopropyl-3-(trifluoromethyl)benzole sulfonamide] | 84%
3 | O=S(=O)(c1ccc(Cl)cc1Cl)N(Cc1cccc(-c2cc(F)c3ncnc(NC4CC4)c3c2)c1)C1CC1 [Example 782, 2,4-dichloro-N-cyclopropyl-N-(3-(4-(cyclopropylamino)-8-fluoroquinazolin-6-yl)benzyl)benzole sulfonamide] | 50%
4 | O=C(c1ccccc1)N(Cc1cc(-c2ccc3ncnc(NC4CC4)c3c2)ccc1Cl)C1CC1 [Example 783, N-(2-chloro-5-(4-(cyclopropylamino)quinazolin-6-yl)benzyl)-N-cyclopropyl benzamide] | 93%
5 | CC(C)(C)C(=O)N(Cc1cc(-c2ccc3ncnc(NC4CC4)c3c2)ccc1Cl)C1CC1 [Example 785, N-(2-chloro-5-(4-(cyclopropylamino)quinazolin-6-yl)benzyl)-N-cyclopropyl pivalamide] | 100%
6 | COc1ccc(S(=O)(=O)N(Cc2cc(-c3ccc4ncnc(NC5CC5)c4c3)ccc2Cl)C2CC2)cc1 [Example 786, N-(2-chloro-5-(4-(cyclopropylamino)quinazolin-6-yl)benzyl)-N-cyclopropyl-4-methoxybenzole sulfonamide] | 95%
7 | CCCCC(=O)N(Cc1cc(-c2ccc3ncnc(NC4CC4)c3c2)ccc1Cl)C1CC1 [Example 793, N-(2-chloro-5-(4-(cyclopropylamino)quinazolin-6-yl)benzyl)-N-cyclopropyl pentanamide] | 94%
8 | O=S(=O)(c1ccc(Cl)cc1Cl)N(Cc1cc(-c2ccc3ncnc(NC4CC4)c3c2)ccc1Cl)C1CC1 [Example 794, 2,4-dichloro-N-(2-chloro-5-(4-(cyclopropylamino)quinazolin-6-yl)benzyl)-N-cyclopropyl benzole sulfonamide] | 93%
9 | O=S(=O)(c1ccc(Cl)cc1Cl)N(Cc1cc(-c2ccc3ncnc(NC4CC4)c3c2)ccn1)C1CC1 [Example 796, 2,4-dichloro-N-cyclopropyl-N-((4-(4-(cyclopropylamino)quinazolin-6-yl)pyridin-2-yl)methyl)benzole sulfonamide] | 78%
10 | O=S(=O)(c1ccccc1)N(Cc1cc(-c2ccc3ncnc(NC4CC4)c3c2)ccc1Cl)C1CC1 [Example 799, N-(2-chloro-5-(4-(cyclopropylamino)quinazolin-6-yl)benzyl)-N-cyclopropyl benzole sulfonamide] | 92%
11 | O=S(=O)(c1c(F)c(F)c(F)c(F)c1F)N(Cc1cc(-c2ccc3ncnc(NC4CC4)c3c2)ccc1Cl)C1CC1 [Example 802, N-(2-chloro-5-(4-(cyclopropylamino)quinazolin-6-yl)benzyl)-N-cyclopropyl-2,3,4,5,6-pentafluorobenzole sulfonamide] | 97%
12 | COc1ccc(S(=O)(=O)N(Cc2cc(-c3ccc4ncnc(NC5CC5)c4c3)ccn2)C2CC2)cc1 [Example 806, N-cyclopropyl-N-((4-(4-(cyclopropylamino)quinazolin-6-yl)pyridin-2-yl)methyl)-4-methoxybenzole sulfonamide] | 89%
13 | CC(C)(C)Nc1ncnc2ccc(-c3ccc(F)c(CN(C(=O)c4ccco4)C4CC4)c3)cc12 [Example 807, N-(5-(4-(tert-butylamino)quinazolin-6-yl)-2-fluorobenzyl)-N-cyclopropyl furan-2-carboxamide] | 90%
14 | CC(C)(C)Nc1ncnc2ccc(-c3ccc(F)c(CN(C(=O)C4CCCCC4)C4CC4)c3)cc12 [Example 809, N-(5-(4-(tert-butylamino)quinazolin-6-yl)-2-fluorobenzyl)-N-cyclopropyl cyclohexane carboxamide] | 48%
15 | CC(C)(C)Nc1ncnc2ccc(-c3ccc(F)c(CN(C4CC4)S(=O)(=O)c4cccs4)c3)cc12 [Example 810, N-(5-(4-(tert-butylamino)quinazolin-6-yl)-2-fluorobenzyl)-N-cyclopropyl thiophene-2-sulfonamide] | 45%

Same assay, conditions: 10 μM compound, 5 nM [3H]-MPEP, read-out: % Inhibition of mGluR5 Receptor (pig) [^3H]-MPEP Bond at 10 μM

Row | Structure (SMILES) | inhibition at 10 µM
16 | Cc1cc(C(=O)N(Cc2cc(-c3ccc4ncnc(NC5CC5)c4c3)ccc2Cl)C2CC2)n(C)n1 [Example 776, N-(2-chloro-5-(4-(cyclopropylamino)quinazolin-6-yl)benzyl)-N-cyclopropyl-1,3-dimethyl-1H-pyrazole-5-carboxamide] | 55%
17 | O=C(c1cccnc1)N(Cc1cccc(-c2cc(F)c3ncnc(NC4CC4)c3c2)c1)C1CC1 [Example 781, N-cyclopropyl-N-(3-(4-(cyclopropylamino)-8-fluoroquinazolin-6-yl)benzyl)nicotinamide] | 67%
18 | COc1ccc(C(=O)N(Cc2cc(-c3ccc4ncnc(NC5CC5)c4c3)ccc2Cl)C2CC2)cc1OC [Example 784, N-(2-chloro-5-(4-(cyclopropylamino)quinazolin-6-yl)benzyl)-N-cyclopropyl-3,4-dimethoxybenzamide] | 56%
19 | O=S(=O)(c1cccs1)N(Cc1cc(-c2ccc3ncnc(NC4CC4)c3c2)ccn1)C1CC1 [Example 788, N-cyclopropyl-N-((4-(4-(cyclopropylamino)quinazolin-6-yl)pyridin-2-yl)methyl)thiophene-2-sulfonamide] | 77%
20 | O=C(c1ccccc1C(F)(F)F)N(Cc1cccc(-c2cc(F)c3ncnc(NC4CC4)c3c2)c1)C1CC1 [Example 789, N-cyclopropyl-N-(3-(4-(cyclopropylamino)-8-fluoroquinazolin-6-yl)benzyl)-2-(trifluoromethyl)benzamide] | 84%
21 | O=C(c1cccc(F)c1)N(Cc1cc(-c2ccc3ncnc(NC4CC4)c3c2)ccc1Cl)C1CC1 [Example 791, N-(2-chloro-5-(4-(cyclopropylamino)quinazolin-6-yl)benzyl)-N-cyclopropyl-3-fluorobenzamide] | 89%
22 | O=C(c1ccc(F)cc1F)N(Cc1cc(-c2ccc3ncnc(NC4CC4)c3c2)ccc1Cl)C1CC1 [Example 792, N-(2-chloro-5-(4-(cyclopropylamino)quinazolin-6-yl)benzyl)-N-cyclopropyl-2,4-difluorobenzamide] | 88%
23 | O=C(c1cccc(F)c1)N(Cc1cc(-c2ccc3ncnc(NC4CC4)c3c2)ccn1)C1CC1 [Example 795, N-cyclopropyl-N-((4-(4-(cyclopropylamino)quinazolin-6-yl)pyridin-2-yl)methyl)-3-fluorobenzamide] | 73%
24 | COCC(=O)N(Cc1cccc(-c2cc3c(NC4CC4)ncnc3cc2C)c1)C1CC1 [Example 797, N-cyclopropyl-N-(3-(4-(cyclopropylamino)-7-methylquinazolin-6-yl)benzyl)-2-methoxyacetamide] | 85%
25 | O=C(c1ccc(C(F)(F)F)cc1F)N(Cc1cc(-c2ccc3ncnc(NC4CC4)c3c2)ccc1Cl)C1CC1 [Example 800, N-(2-chloro-5-(4-(cyclopropylamino)quinazolin-6-yl)benzyl)-N-cyclopropyl-2-fluoro-4-(trifluoromethyl)benzamide] | 91%
26 | COCC(=O)N(Cc1cc(-c2ccc3ncnc(NC4CC4)c3c2)ccc1Cl)C1CC1 [Example 801, N-(2-chloro-5-(4-(cyclopropylamino)quinazolin-6-yl)benzyl)-N-cyclopropyl-2-methoxyacetamide] | 88%
27 | O=C(c1c(F)c(F)c(F)c(F)c1F)N(Cc1cc(-c2ccc3ncnc(NC4CC4)c3c2)ccn1)C1CC1 [Example 803, N-cyclopropyl-N-((4-(4-(cyclopropylamino)quinazolin-6-yl)pyridin-2-yl)methyl)-2,3,4,5,6-pentafluorobenzamide] | 93%
28 | CC(C)S(=O)(=O)N(Cc1cc(-c2ccc3ncnc(NC4CC4)c3c2)ccn1)C1CC1 [Example 804, N-cyclopropyl-N-((4-(4-(cyclopropylamino)quinazolin-6-yl)pyridin-2-yl)methyl)propane-2-sulfonamide] | 83%
29 | O=S(=O)(Cc1ccccc1)N(Cc1cc(-c2ccc3ncnc(NC4CC4)c3c2)ccn1)C1CC1 [Example 805, N-cyclopropyl-N-((4-(4-(cyclopropylamino)quinazolin-6-yl)pyridin-2-yl)methyl)-1-phenylmethane sulfonamide] | 92%
30 | CC(C)(C)Nc1ncnc2ccc(-c3ccc(F)c(CN(C(=O)c4cccc(C(F)(F)F)c4)C4CC4)c3)cc12 [Example 808, N-(5-(4-(tert-butylamino)quinazolin-6-yl)-2-fluorobenzyl)-N-cyclopropyl-3-(trifluoromethyl)benzamide] | 81%
31 | O=C(c1cccs1)N(Cc1cc(-c2ccc3ncnc(NC4CC4)c3c2)ccn1)C1CC1 [Example 811, N-cyclopropyl-N-((4-(4-(cyclopropylamino)quinazolin-6-yl)pyridin-2-yl)methyl)thiophene-2-carboxamide] | 71%
32 | O=S(=O)(c1cccc2cccnc12)N(Cc1cc(-c2ccc3ncnc(NC4CC4)c3c2)ccn1)C1CC1 [Example 812, N-cyclopropyl-N-((4-(4-(cyclopropylamino)quinazolin-6-yl)pyridin-2-yl)methyl)quinoline-8-sulfonamide] | 73%
